Measurements as given in patent US20010019832A1, “Methods for identification using U0126” (priority 2000, published 2001).

Key:
[1] = tested on: L6 cells; assay: Glucose uptake rate in L6 cells; type: cell-based, rat; settings: 5 mM glucose; for Glucose uptake rate: U0126 10 μM or PD98059 10 μM for 20 h, insulin 176 nM 1 h before
Method: (§1) Glucose uptake was determined as described by Hundal et al. (1994) Biochem. J. 297: 289-295. Briefly, after incubation with insulin for one hour, cell monolayers were rinsed with glucose-free PBS. Glucose uptake was quantified by incubating the cells in the presence of 1 μCi/ml ^3H-2-deoxy-glucose in PBS for 8 min. Uptake of 2-deoxy-glucose was terminated by rapidly aspirating the medium, followed by two successive washes of cell monolayers with ice cold PBS. The cells were lysed in 0.5 M NaOH, followed by liquid scintillation counting. Rates of transport were normalized for protein content in each well.
Glucose uptake rate in L6 cells, in the presence of 5 mM glucose, was determined. The cells were incubated in serum-free medium supplemented with U0126 (10 μM), PD98059 (10 μM) or wortmannin (100 nM) for 20 h. Insulin (176 nM) was added 1 h before the determination of glucose uptake rate. Glucose uptake was determined as described above.

[2] = tested on: human skeletal muscle cells (hSkMC); assay: Glucose uptake rate in human skeletal muscle cells; type: cell-based; settings: 5 mM glucose, insulin 176 nM or U0126 10 μM added 30 min before
Method: as §1
Glucose uptake rate in human skeletal muscle cells (hSkMC), in the presence of 5 mM glucose, was determined. The cells were incubated in serum-free medium (PromoCell) for 2 h. Insulin (176 nM) or U0126 (10 μM) were added 30 min before determination of glucose uptake rate.

[3] = tested on: SH-SY5Y cells; assay: Glucose uptake rate in SH-SY5Y cells; type: cell-based, human; settings: 5 mM glucose, U0126 10 μM or insulin 176 nM added 1 h before
Method: as §1
Glucose uptake rate in SH-SY5Y cells in the presence of 5 mM glucose was determined. The cells were incubated in serum-free medium over night. Approximately 20 h later U0126 (10 μM), wortmannin (100 nM) or insulin (176 nM) were added, 1 h before the determination of glucose uptake rate.

[4] = tested on: L6 cells; assay: Glucose oxidation in L6 cells (14CO2 trapping); type: cell-based, rat; settings: 5 mM glucose; for Glucose oxidation: insulin 176 nM or U0126 10 μM added 1 h before
Description: (§2) The principle of the used glucose/free fatty acid, (FFA) oxidation assay is based on the fact that one of the final products along metabolic pathways of these two substrates is carbon dioxide. Since the substrates are uniformly ^14C labeled, the radioactivity in carbon dioxide trap is a direct measure of metabolic activity in studied cells (Rodbell, M. (1964) J. Biol. Chem. 239: 375-380).
(§3) As further described in International Patent Application No. PCT/SE00/02680, filed Dec. 27, 2000, cells were cultivated until sub-confluence in T-25 Costar flasks. Prior to the experiment, the cells were deprived of serum for 6 hours in DMEM medium containing 5 mM glucose. 3 ml of medium supplemented with (U-^14C)-glucose or (U^14C)-palmitic acid (0.2 μCi/ml) were added to each flask. A filter paper (1.5×5.5 cm) soaked in hyamine solution was rolled up, blotted on a paper towel to remove excess of fluid, and placed carefully into the tube of the device described in International Patent Application No. PCT/SE00/02680. The tube was mounted in the flasks, the screw caps were tightened and cells were incubated at 37° C. for a suitable time period. The reaction was terminated by adding sulfuric acid to the culture medium and the cells were incubated for additional 60 min. The filter paper was removed, cut into small pieces and transferred to scintillation vials. Methanol (0.2 ml) was added to each vial to increase the solubility of hyamine-CO2 in the scintillation fluid. Finally the radioactivity was measured. The remaining cells were washed briefly with ice cold PBS, solubilized with 1 M KOH and the protein content was determined by the Bradford method (Bradford, M. M. (1976) Anal. Biochem. 72: 248-254).
Glucose oxidation in L6 cells in the presence of 5 mM glucose was determined as described in “Experimental Methods”. One hour prior to determination of glucose oxidation, insulin or U0126 was added to a concentration of 176 nM or 10 μM, respectively.

[5] = tested on: L6 cells; assay: Palmitate oxidation in L6 cells (14CO2 trapping); type: cell-based, rat; settings: for Palmitate oxidation in the presence of 5 mM glucose: data not shown
Description: as §2, §3
In a cell system, insulin resistance can be provoked experimentally by raising the concentrations of glucose, fat or both in the medium, or by treating the cells with the cytokine Tumor Necrosis Factor alpha (TNF alpha) before insulin stimulation. […] Palmitate oxidation was determined as described in “Experimental methods”. […]

[6] = tested on: PKB; assay: PKB activity in L6 cells; type: cell-based, rat; settings: differentiated L6 cells, incubated 10 min
[7] = tested on: INS-1 cells; settings: U0126 10 μM, 24 hours
Method: Insulin secretion in INS-1 cells was determined. INS-1 cells were seeded in 24-well plates. Thirty minutes before assay the glucose concentration was decreased to 2.8 mM. After the incubation in low glucose medium, glucose (up to 16 mM) or U0126 (10 μM) were added. After 24 hours, samples were collected and analyzed in the rat insulin ELISA.

[8] = tested on: MEK½; settings: Favata et al. 1998; cited from earlier work
[9] = tested on: AP-1; settings: Duncia et al. 1998; cited from earlier work

Row | Compound | Glucose uptake rate, U0126 and insulin incubated together ([1]; U0126 10 μM 20 h plus insulin 176 nM 1 h) | Glucose uptake rate [1] | Glucose uptake rate [2] | Glucose uptake rate [3] | Glucose oxidation, U0126 and insulin incubated together ([4]; U0126 10 μM plus insulin 176 nM) | Glucose oxidation [4] | Palmitate oxidation in the presence of 5 mM glucose [5] | Palmitate oxidation during insulin resistant conditions ([5]; 12 mM glucose and 480 μM palmitate for 20 hours, U0126 10 μM 1 h before) | PKB activity [6] | Insulin secretion [7] | Inhibition of MEK½ [8] | Inhibition of AP-1 transactivation [9]
1 | N#CC(=C(N)Sc1ccccc1N)C(C#N)=C(N)Sc1ccccc1N [U0126, 1,4-diamino-2,3-dicyano-1,4-bis [2-aminophenylthio] butadiene] | no further increase compared to U0126 alone | increased glucose uptake | increase glucose uptake | increased glucose uptake | A small increase | increased glucose oxidation | decreased palmitate oxidation | decreased palmitate oxidation | no effect | increased insulin secretion | specifically inhibits MEK½ in both the inactive and active forms | inhibitor of AP-1 transactivation
2 | insulin: Bovine insulin purchased from Gibco Laboratories |  | increased glucose uptake | increase glucose uptake | increased glucose uptake |  | increased glucose oxidation | decreased palmitate oxidation |  | increased PKB activity three-fold |  |  | 
